What is called IC50 is the concentration that inhibits the measured activity by half. Lower therefore signals higher potency.

Structures are written as SMILES. Where only a bound is given, the exact number is not on record here.
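Note: rho kinase enzyme reaction halted with EDTA, phospho- and non-phospho peptide separated for read-out, kinase activity inhibition derived across a dose-response series, DMSO under 2%.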

The target of the experiment is ROCK2 (Homo sapiens (Human), UniProt O75116). As to the kind of experiment: biochemical.
Chain of ROCK2 (O75116 whole entry, species assumed): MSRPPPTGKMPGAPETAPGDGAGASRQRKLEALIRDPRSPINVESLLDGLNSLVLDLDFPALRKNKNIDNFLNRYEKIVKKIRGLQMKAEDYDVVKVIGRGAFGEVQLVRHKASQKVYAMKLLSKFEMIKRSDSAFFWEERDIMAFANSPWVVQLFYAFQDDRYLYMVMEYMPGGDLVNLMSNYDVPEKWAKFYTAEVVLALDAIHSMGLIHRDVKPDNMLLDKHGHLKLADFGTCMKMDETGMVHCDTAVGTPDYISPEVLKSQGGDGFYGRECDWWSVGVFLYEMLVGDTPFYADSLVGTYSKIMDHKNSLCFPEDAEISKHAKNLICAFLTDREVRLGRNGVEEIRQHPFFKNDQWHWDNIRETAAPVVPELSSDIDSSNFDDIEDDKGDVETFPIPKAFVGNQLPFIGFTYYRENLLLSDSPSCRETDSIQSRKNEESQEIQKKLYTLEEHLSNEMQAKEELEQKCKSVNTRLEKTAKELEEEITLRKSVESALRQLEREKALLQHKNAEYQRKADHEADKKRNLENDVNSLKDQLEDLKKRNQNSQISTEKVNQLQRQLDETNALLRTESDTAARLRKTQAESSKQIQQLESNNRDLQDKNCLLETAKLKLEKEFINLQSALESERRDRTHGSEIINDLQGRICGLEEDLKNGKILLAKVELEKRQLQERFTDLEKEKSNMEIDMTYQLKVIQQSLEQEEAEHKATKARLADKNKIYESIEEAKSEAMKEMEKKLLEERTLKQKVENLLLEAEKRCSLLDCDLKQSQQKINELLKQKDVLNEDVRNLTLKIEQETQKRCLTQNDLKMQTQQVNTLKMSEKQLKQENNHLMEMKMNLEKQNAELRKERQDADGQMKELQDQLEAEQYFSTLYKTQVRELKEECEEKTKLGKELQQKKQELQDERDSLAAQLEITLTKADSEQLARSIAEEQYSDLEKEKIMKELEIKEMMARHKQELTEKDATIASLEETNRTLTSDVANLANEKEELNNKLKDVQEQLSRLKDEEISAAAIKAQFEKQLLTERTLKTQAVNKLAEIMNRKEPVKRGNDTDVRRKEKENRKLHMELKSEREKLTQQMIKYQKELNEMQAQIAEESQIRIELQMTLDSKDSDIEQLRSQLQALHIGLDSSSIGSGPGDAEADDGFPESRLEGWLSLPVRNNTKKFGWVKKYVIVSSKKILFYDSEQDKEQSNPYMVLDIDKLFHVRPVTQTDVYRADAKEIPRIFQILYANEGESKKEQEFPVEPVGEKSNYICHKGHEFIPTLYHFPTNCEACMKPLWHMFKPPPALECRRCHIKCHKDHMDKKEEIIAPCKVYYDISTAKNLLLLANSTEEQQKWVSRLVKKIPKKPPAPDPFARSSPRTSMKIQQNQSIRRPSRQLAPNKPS
In the case of `COc1cc(F)cc(NC2CCN(c3ccc(-c4cn[nH]c4)c(C(F)(F)F)c3)C2=O)c1` (single isomer, unassigned) [Example 370, 1-(4-(1H-pyrazol-4-yl)-3-(trifluoromethyl)phenyl)-3-((3-fluoro-5-methoxyphenyl)amino)pyrrolidin-2-one], the IC50 lay in the range of 0.01 to 0.1 µM.

As for `O=C1[C@H](Nc2ccc3c(c2)OCO3)CCN1c1ccc(-c2cn[nH]c2)cc1` [Example 396, (R)-1-(4-(1H-pyrazol-4-yl)phenyl)-3-(benzo[d][1,3]dioxo1-5-ylamino)pyrrolidin-2-one], the IC50 is 0.01 to 0.1 µM.

As for `COc1c(F)cccc1NC1CCN(c2ccc(-c3cn[nH]c3)c(C#N)c2)C1=O` (single isomer, unassigned) [Example 376, 5-(3-((3-fluoro-2-methoxyphenyl)amino)-2-oxopyrrolidin-1-yl)-2-(1H-pyrazol-4-yl)benzonitrile], the IC50 lay in the range of 0.1 to 2.2 µM.

`CCc1cc(N2CCC(Nc3cccc(OC)c3)C2=O)ncc1-c1cn[nH]c1` (single isomer, unassigned) [Example 203, 1-(4-ethyl-5-(1H-pyrazol-4-yl)pyridin-2-yl)-3-((3-methoxyphenyl)amino) pyrrolidin-2-one] gave an IC50 of 0.1 to 2.2 µM. Next, `CCc1nc(N2CCC(Nc3cc(F)cc(OC)c3)C2=O)ccc1-c1cn[nH]c1` (single isomer, unassigned) [Example 315, 1-(6-ethyl-5-(1H-pyrazol-4-yl)pyridin-2-yl)-3-((3-fluoro-5-methoxyphenyl)amino) pyrrolidin-2-one]: 0.01 to 0.1 µM. In turn, `CCOc1cccc(NC2CCN(c3ccc(-c4cn[nH]c4)c(OC)c3)C2=O)c1` (single isomer, unassigned) [Example 250, 3-((3-ethoxyphenyl)amino)-1-(3-methoxy-4-(1H-pyrazol-4-yl)phenyl)pyrrolidin-2-one] displayed an IC50 of less than 0.01 µM. Next, `COc1cc(F)cc(NC2CCN(c3ccc(-c4cn[nH]c4)cc3)C2=O)c1` (centres unmarked) [Example 3, 1-(4-(1H-pyrazol-4-yl)phenyl)-3-((3-fluoro-5-methoxyphenyl)amino)pyrrolidin-2-one]: less than 0.01 µM; `CCOc1cccc(NC2CCN(c3ccc(-c4cn[nH]c4)c(OC)c3)C2=O)c1` (single isomer, unassigned) [Example 249, 3-((3-ethoxyphenyl)amino)-1-(3-methoxy-4-(1H-pyrazol-4-yl)phenyl)pyrrolidin-2-one]: 0.01 to 0.1 µM.

`O=C1C(Nc2cccc(OC(F)F)c2)CCN1c1ccc(-c2cn[nH]c2)c(F)c1` (single isomer, unassigned) [Example 355, 3-((3-(difluoromethoxy)phenyl)amino)-1-(3-fluoro-4-(1H-pyrazol-4-yl)phenyl) pyrrolidin-2-one] registered an IC50 of 0.01 to 0.1 µM. `O=C1C(Nc2cccc(F)c2F)CCN1c1ccc(-c2cn[nH]c2)cc1` (single isomer, unassigned) [Example 23, 1-(4-(1H-pyrazol-4-yl)phenyl)-3-((2,3-difluorophenyl)amino)pyrrolidin-2-one] displayed an IC50 of less than 0.01 µM. For `COc1nc(N2CCC(Nc3ccc(F)c(OCC4CC4)c3)C2=O)ccc1-c1cn[nH]c1` (single isomer, unassigned) [Example 216, 3-((3-(cyclopropylmethoxy)-4-fluorophenyl)amino)-1-(6-methoxy-5-(1H-pyrazol-4-yl)pyridin-2-yl)pyrrolidin-2-one], the IC50 is less than 0.01 µM. In turn, `COc1cccc(NC2CCN(c3ccc(-c4ccnc(F)c4)c(OC)n3)C2=O)c1` (racemic) [Example 127, 1-(2′-fluoro-2-methoxy-[3,4′-bipyridin]-6-yl)-3-((3-methoxyphenyl)amino)pyrrolidin-2-one] displayed an IC50 of 0.01 to 0.1 µM. For the compound `O=C1C(Nc2nc3ccccc3[nH]2)CCN1c1ccc(-c2cn[nH]c2)cc1` (single isomer, unassigned) [Example 55, 3-((1H-benzo[d]imidazol-2-yl)amino)-1-(4-(1H-pyrazol-4-yl)phenyl)pyrrolidin-2-one], the IC50 was in the range of 0.1 to 2.2 µM. As to `COc1cccc(NC2CCN(c3ccc(-c4cn[nH]c4)c(CO)c3)C2=O)c1` (racemic) [Example 187, 1-(3-(hydroxymethyl)-4-(1H-pyrazol-4-yl)phenyl)-3-((3-methoxyphenyl)amino) pyrrolidin-2-one], the IC50 lay within 0.1 to 2.2 µM. Turning to `COc1cccc(NC2CCN(c3ccc(-c4cn[nH]c4)c(C)n3)C2=O)c1` (single isomer, unassigned) [Example 189, 3-((3-methoxyphenyl)amino)-1-(6-methyl-5-(1H-pyrazol-4-yl)pyridin-2-yl)pyrrolidin-2-one], the IC50 was less than 0.01 µM. `O=C1C(Nc2cccc(OCC3CC3)c2)CCN1c1ccc(-c2cn[nH]c2)cn1` (single isomer, unassigned) [Example 319, 1-(5-(1H-pyrazol-4-yl)pyridin-2-yl)-3-((3-(cyclopropylmethoxy)phenyl)amino) pyrrolidin-2-one] displayed an IC50 of 0.01 to 0.1 µM. `COc1cccc(NC2CCN(c3ccc(-c4cn[nH]c4)cc3)C2=O)c1` (single isomer, unassigned) [Example 28, 1-(4-(1H-pyrazol-4-yl)phenyl)-3-((3-methoxyphenyl)amino)pyrrolidin-2-one] yielded a concentration for half-maximal inhibition (IC50) of less than 0.01 µM.

As for `O=C1C(Cc2cccc(F)c2)CCN1c1ccc(-c2cn[nH]c2)cc1` (centres unmarked) [Example 91, 1-(4-(1H-pyrazol-4-yl)phenyl)-3-(3-fluorobenzyl)pyrrolidin-2-one], the IC50 was 0.1 to 2.2 µM. For the compound `COc1cc(F)cc(NC2CCN(c3ccc(-c4cn[nH]c4)nc3)C2=O)c1` (single isomer, unassigned) [Example 302, 1-(6-(1H-pyrazol-4-yl)pyridin-3-yl)-3-((3-fluoro-5-methoxyphenyl)amino)pyrrolidin-2-one], the IC50 was less than 0.01 µM. `Cc1nc2ccc(NC3CCN(c4ccc(-c5cn[nH]c5)cc4)C3=O)cc2s1` (centres unmarked) [Example 115, 1-(4-(1H-pyrazol-4-yl)phenyl)-3-((2-methylbenzo[d]thiazol-6-yl)amino)pyrrolidin-2-one]: the IC50 was in the range of 0.1 to 2.2 µM. Regarding `O=C1[C@H](N2CCCc3ccccc32)CCN1c1ccc(-c2cn[nH]c2)cc1` [Example 394, (R)-1-(4-(1H-pyrazol-4-yl)phenyl)-3-(3,4-dihydroquinolin-1(2H)-yl)pyrrolidin-2-one], the 50% inhibitory concentration (IC50) lay in the range of 0.01 to 0.1 µM. Compound `CCc1cc(N2CCC(Nc3ccc(F)c(OC)c3)C2=O)ccc1-c1cn[nH]c1` (single isomer, unassigned) [Example 241, 1-(3-ethyl-4-(1H-pyrazol-4-yl)phenyl)-3-((4-fluoro-3-methoxyphenyl)amino) pyrrolidin-2-one] had an IC50 of 0.01 to 0.1 µM.

`COc1cccc(NC2CCN(c3ccc(-c4cn[nH]c4)c(F)c3F)C2=O)c1` (single isomer, unassigned) [Example 305, 1-(2,3-difluoro-4-(1H-pyrazol-4-yl)phenyl)-3-((3-methoxyphenyl)amino) pyrrolidin-2-one] had an IC50 of 0.01 to 0.1 µM. The compound `COc1cccc(NC2CCN(c3ccc(-c4cn[nH]c4)c(OC)n3)C2=O)c1C` (centres unmarked) [Example 117, 3-((3-Methoxy-2-methylphenyl)amino)-1-(6-methoxy-5-(1H-pyrazol-4-yl)pyridin-2-yl)pyrrolidin-2-one] had an IC50 of less than 0.01 µM. On to `O=C1C(c2ccccc2)CCN1c1ccc(-c2cn[nH]c2)cc1` (centres unmarked) [Example 101, 1-(4-(1H-pyrazol-4-yl)phenyl)-3-phenylpyrrolidin-2-one], for which the IC50 fell in the range of 0.01 to 0.1 µM. Next, `COc1cccc(NC2C(=O)N(c3ccc(-c4cn[nH]c4)cc3)C[C@H]2CO)c1` (single isomer, unassigned) [Example 323]: less than 0.01 µM; `COc1ccc(F)cc1NC1CCN(c2ccc(-c3cn[nH]c3)cc2)C1=O` (centres unmarked) [Example 5, 1-(4-(1H-pyrazol-4-yl)phenyl)-3-((5-fluoro-2-methoxyphenyl)amino)pyrrolidin-2-one]: 0.01 to 0.1 µM; `COc1cccc(N(C)C2CCN(c3ccc(-c4cn[nH]c4)cc3)C2=O)c1` (single isomer, unassigned) [Example 30, 1-(4-(1H-pyrazol-4-yl)phenyl)-3-((3-methoxyphenyl)(methyl)amino)pyrrolidin-2-one]: 0.01 to 0.1 µM. As to `O=C1C(Nc2cccc(OCC3CC3)c2)CCN1c1ccc(-c2cn[nH]c2)c(F)c1` (single isomer, unassigned) [Example 362, 3-((3-(cyclopropylmethoxy)phenyl)amino)-1-(3-fluoro-4-(1H-pyrazol-4-yl)phenyl)pyrrolidin-2-one], the IC50 was 0.01 to 0.1 µM. For `COc1c(F)cccc1NC1CCN(c2ccc(-c3cn[nH]c3)cc2F)C1=O` (single isomer, unassigned) [Example 342, 3-((3-fluoro-2-methoxyphenyl)amino)-1-(2-fluoro-4-(1H-pyrazol-4-yl)phenyl) pyrrolidin-2-one], the concentration for half-maximal inhibition (IC50) fell in the range of 0.1 to 2.2 µM. Turning to `COc1cccc(NC2CCN(c3ccc(-c4cn[nH]c4)c(F)c3F)C2=O)c1` (single isomer, unassigned) [Example 306, 1-(2,3-difluoro-4-(1H-pyrazol-4-yl)phenyl)-3-((3-methoxyphenyl)amino) pyrrolidin-2-one], the IC50 was less than 0.01 µM.

As to `CCc1cc(N2CCC(Nc3cccc(OCC4CC4)c3)C2=O)ccc1-c1cn[nH]c1` (single isomer, unassigned) [Example 247, 3-((3-(cyclopropylmethoxy)phenyl)amino)-1-(3-ethyl-4-(1H-pyrazol-4-yl)phenyl)pyrrolidin-2-one], the IC50 lay in the range of 0.01 to 0.1 µM.

As for `COc1cccc(CCC2CCN(c3ccc(-c4cn[nH]c4)cc3)C2=O)c1` (centres unmarked) [Example 99, 1-(4-(1H-pyrazol-4-yl)phenyl)-3-(3-methoxyphenethyl)pyrrolidin-2-one], the IC50 fell in the range of 0.01 to 0.1 µM. In the case of `COc1nc(N2CCC(N3CCNc4ccccc43)C2=O)ccc1-c1cn[nH]c1` (racemic) [Example 228, 3-(3,4-dihydroquinoxalin-1(2H)-yl)-1-(6-methoxy-5-(1H-pyrazol-4-yl)pyridin-2-yl)pyrrolidin-2-one], the IC50 is less than 0.01 µM. `COc1cc(N2CCC(Nc3cc(F)cc(F)c3)C2=O)ccc1-c1cn[nH]c1` (single isomer, unassigned) [Example 146, 3-((3,5-difluorophenyl)amino)-1-(3-methoxy-4-(1H-pyrazol-4-yl)phenyl) pyrrolidin-2-one]: the IC50 was less than 0.01 µM.
